Read-outs that look alike come from different tables or passages of the source.
Experiments:
rat CB2 = target: T1, rat CB2 (Rattus norvegicus, UniProt Q9QZN9); assay: PI hydrolysis (IP1) assay in HEK/Gqi9 cells expressing rat CB2; assay type: cell-based; design: expressed in transfected cells; conditions: rCB2/Gqi9 cells
T1 sequence (Q9QZN9 1-360): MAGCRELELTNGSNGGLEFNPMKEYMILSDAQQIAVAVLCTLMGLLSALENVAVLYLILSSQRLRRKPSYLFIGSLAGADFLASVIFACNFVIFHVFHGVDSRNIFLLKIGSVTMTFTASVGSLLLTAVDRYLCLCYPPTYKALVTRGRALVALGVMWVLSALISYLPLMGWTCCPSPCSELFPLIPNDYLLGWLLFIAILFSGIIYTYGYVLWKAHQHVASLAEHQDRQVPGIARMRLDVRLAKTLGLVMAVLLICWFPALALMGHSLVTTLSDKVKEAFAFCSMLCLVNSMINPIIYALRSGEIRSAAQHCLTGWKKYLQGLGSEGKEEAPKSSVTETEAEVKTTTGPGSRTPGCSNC
Experimental: In a complementary assay, we used phosphoinositide (PI) hydrolysis in the presence of the chimeric G protein, Gqi9, to assess activity.
One day prior to experimentation, selected HEK/Gqi9 monoclonal cells stably expressing rat CB2 were plated onto poly-D-lysine coated clear-bottom 384-well plates (15,000 cells per well) in DMEM supplemented with 10% FBS and 20 mM HEPES. Ten minutes prior to the assay, the cell culture medium was replaced with 20 µL 37 °C Hank’s balanced salt solution (HBSS; with Ca^2+, Mg^2+, glucose). IP1 stimulation was then initiated by adding 5 µL of 5× agonist dissolved in HBSS plus 40 mM Li^+, and cells were incubated for an additional hour before aspiration and addition of Lysis Buffer. IP1 levels were determined using the Cisbio HTRF IP-ONE assay kit according to the manufacturer’s instructions, and fluorescence was measured using an Envision plate reader (PerkinElmer, Waltham, MA, USA). Data were acquired as HTRF ratio (665/620) and expressed as nanomolar levels of IP1.

Human CB2 = Human CB2 (Homo sapiens, UniProt P34972); assay: Activity at the human CB2 receptor (thallium flux); assay type: cell-based
Sequence of Human CB2 (P34972 whole entry): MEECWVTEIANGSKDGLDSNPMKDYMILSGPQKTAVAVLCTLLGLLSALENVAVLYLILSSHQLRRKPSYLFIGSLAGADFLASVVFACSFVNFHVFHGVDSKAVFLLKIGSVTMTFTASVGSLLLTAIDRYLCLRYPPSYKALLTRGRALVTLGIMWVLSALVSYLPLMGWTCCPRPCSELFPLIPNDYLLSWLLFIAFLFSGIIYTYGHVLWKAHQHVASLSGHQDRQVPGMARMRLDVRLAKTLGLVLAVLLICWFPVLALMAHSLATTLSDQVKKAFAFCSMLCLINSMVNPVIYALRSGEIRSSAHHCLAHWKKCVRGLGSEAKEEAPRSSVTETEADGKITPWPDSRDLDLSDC

- PI hydrolysis Max IP1, absence of 2-AG (rat CB2; absence of 2-AG, IP1 concentration): 438 ± 32 nM
- EC50 (rat CB2; absence of 2-AG, read-out: PI hydrolysis potency, absence of 2-AG): 521 nM
- PI hydrolysis Max IP1, presence of 2-AG (rat CB2; presence of EC20 2-AG, IP1 concentration): 633 ± 122 nM
- EC50 (rat CB2; presence of EC20 2-AG, read-out: PI hydrolysis potency, presence of 2-AG): 700 nM
- human CB2 receptor % Max (Human CB2): 36 ± 4%
- EC50 (Human CB2; read-out: human CB2 receptor pEC50 (converted)): 2000 nM
Structure (SMILES): COc1c(C)c2c(c(O)c1C/C=C(\C)CCC(=O)OCCN1CCOCC1)C(=O)OC2 [Mycophenolate mofetil]
